Biological target: T1, Savinase® 16.0L (Lederbergia lenta, UniProt P29600)
T1 construct: purchased Sigma-Aldrich
T1 sequence (P29600 1-269): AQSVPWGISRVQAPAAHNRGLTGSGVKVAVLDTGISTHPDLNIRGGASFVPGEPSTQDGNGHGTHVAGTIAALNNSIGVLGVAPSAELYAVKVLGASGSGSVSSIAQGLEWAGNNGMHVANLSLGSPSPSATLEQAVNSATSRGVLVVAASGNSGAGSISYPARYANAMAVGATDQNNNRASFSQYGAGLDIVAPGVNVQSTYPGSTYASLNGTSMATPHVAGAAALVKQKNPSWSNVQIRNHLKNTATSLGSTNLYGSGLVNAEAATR
Assay: Protease storage stability in liquid formulations at 37° C. (Suc-AAPF-pNA assay)
Type: biochemical
Conditions: 0.7 wt% Savinase 16.0 L
Description: The storage stability of protease was assessed at 37° C.
Base test formulations were manufactured by making base formulations I to V by mixing the components according to Table 1.
Protease used: Savinase® 16.0L (CAS-No. 9014-01-1, EC-No. 232-752-2) was purchased from Sigma-Aldrich.
The respective component (a) or comparative compound was added, if applicable, to the respective base formulation in amounts as indicated in Table 1.
The amount of protease as provided in Table 1 refers to active protein.
Water was added to accomplish the balance to 100.
Savinase activity at certain points in time as indicated in Table 2 was be determined by employing Succinyl-Ala-Ala-Pro-Phe-p-nitroanilide (Suc-AAPF-pNA, short AAPF) as substrate. pNA is cleaved from the substrate molecule by proteolytic cleavage, resulting in release of yellow color of free pNA which was determined by measuring OD405. Measurements were done at 20° C.
The proteolytic activity values provided in Table 3 were calculated referring to the 100% value determined in the reference formulation at the time 0.
The nomenclature of formulations is as follows: the Roman number before the full stop characterizes the base formulation, the Arabian number the type of compound (A. # compound according to invention (component (a)); (B. #) comparative compound).

[1] = base formulation I, 2.5 wt% compound, 3 d
[2] = base formulation I, 2.5 wt% compound, 7 d
[3] = base formulation I, 2.5 wt% compound, 14 d
[4] = base formulation I, 2.5 wt% compound, 21 d
[5] = base formulation I, 2.5 wt% compound, 28 d
[6] = base formulation I, 2.5 wt% compound, 35 d
[7] = base formulation I, 2.5 wt% compound, T0
[8] = base formulation II, 2.5 wt% compound, 3 d
[9] = base formulation II, 2.5 wt% compound, 7 d
[10] = base formulation II, 2.5 wt% compound, 14 d
[11] = base formulation II, 2.5 wt% compound, 21 d
[12] = base formulation II, 2.5 wt% compound, 28 d
[13] = base formulation II, 2.5 wt% compound, 35 d
[14] = base formulation II, 2.5 wt% compound, T0
[15] = base formulation III, 2.0 wt% compound, 3 d
[16] = base formulation III, 2.0 wt% compound, 7 d
[17] = base formulation III, 2.0 wt% compound, 14 d
[18] = base formulation III, 2.0 wt% compound, 21 d
[19] = base formulation III, 2.0 wt% compound, 28 d
[20] = base formulation III, 2.0 wt% compound, 35 d
[21] = base formulation III, 2.0 wt% compound, T0
[22] = base formulation IV, 2.0 wt% compound, 3 d
[23] = base formulation IV, 2.0 wt% compound, 7 d
[24] = base formulation IV, 2.0 wt% compound, 14 d
[25] = base formulation IV, 2.0 wt% compound, 21 d
[26] = base formulation IV, 2.0 wt% compound, 28 d
[27] = base formulation IV, 2.0 wt% compound, 35 d
[28] = base formulation IV, 2.0 wt% compound, T0
[29] = base formulation V, 2.0 wt% compound, 3 d
[30] = base formulation V, 2.0 wt% compound, 7 d
[31] = base formulation V, 2.0 wt% compound, 14 d
[32] = base formulation V, 2.0 wt% compound, 21 d
[33] = base formulation V, 2.0 wt% compound, 28 d
[34] = base formulation V, 2.0 wt% compound, 35 d
[35] = base formulation V, 2.0 wt% compound, T0

SMILES | protease activity in the course of time of storage at 37° C. [1] | protease activity in the course of time of storage at 37° C. [2] | protease activity in the course of time of storage at 37° C. [3] | protease activity in the course of time of storage at 37° C. [4] | protease activity in the course of time of storage at 37° C. [5] | protease activity in the course of time of storage at 37° C. [6] | protease activity in the course of time of storage at 37° C. [8] | protease activity in the course of time of storage at 37° C. [9] | protease activity in the course of time of storage at 37° C. [10] | protease activity in the course of time of storage at 37° C. [11] | protease activity in the course of time of storage at 37° C. [12] | protease activity in the course of time of storage at 37° C. [13] | protease activity in the course of time of storage at 37° C. [14] | protease activity in the course of time of storage at 37° C. [15] | protease activity in the course of time of storage at 37° C. [16] | protease activity in the course of time of storage at 37° C. [17] | protease activity in the course of time of storage at 37° C. [18] | protease activity in the course of time of storage at 37° C. [19] | protease activity in the course of time of storage at 37° C. [20] | protease activity in the course of time of storage at 37° C. [21] | also measured
CCOC(=O)CC(O)(CC(=O)OCC)C(=O)OCC [A.1, Triethylcitrate] | 96% | 93% | 89% | 83% | 79% | 72% | 100% | 96% | 93% | 89% | 83% | 78% | 100% | 98% | 94% | 91% | 87% | 84% | 81% | 100% | protease activity in the course of time of storage at 37° C. [7]: 100%; protease activity in the course of time of storage at 37° C. [22]: 96%; protease activity in the course of time of storage at 37° C. [23]: 93%; protease activity in the course of time of storage at 37° C. [24]: 88%; protease activity in the course of time of storage at 37° C. [25]: 82%; protease activity in the course of time of storage at 37° C. [26]: 79%; protease activity in the course of time of storage at 37° C. [27]: 74%; protease activity in the course of time of storage at 37° C. [28]: 98%; protease activity in the course of time of storage at 37° C. [29]: 94%; protease activity in the course of time of storage at 37° C. [30]: 90%; protease activity in the course of time of storage at 37° C. [31]: 86%; protease activity in the course of time of storage at 37° C. [32]: 83%; protease activity in the course of time of storage at 37° C. [33]: 79%; protease activity in the course of time of storage at 37° C. [34]: 75%; protease activity in the course of time of storage at 37° C. [35]: 97%
CCCOC(=O)CC(O)(CC(=O)OCCC)C(=O)OCCC [A.2, Tripropylcitrate] | 100% | 94% | 91% | 85% | 80% | 76% | – | – | – | – | – | – | – | 100% | 100% | 96% | 91% | 88% | 84% | 102% | protease activity in the course of time of storage at 37° C. [7]: 101%
CCCCOC(=O)CC(O)(CC(=O)OCCCC)C(=O)OCCCC [A.3, Tributylcitrate] | – | – | – | – | – | – | – | – | – | – | – | – | – | – | – | – | – | – | – | – | protease activity in the course of time of storage at 37° C. [22]: 100%; protease activity in the course of time of storage at 37° C. [23]: 96%; protease activity in the course of time of storage at 37° C. [24]: 91%; protease activity in the course of time of storage at 37° C. [25]: 84%; protease activity in the course of time of storage at 37° C. [26]: 81%; protease activity in the course of time of storage at 37° C. [27]: 77%; protease activity in the course of time of storage at 37° C. [28]: 99%; protease activity in the course of time of storage at 37° C. [29]: 98%; protease activity in the course of time of storage at 37° C. [30]: 93%; protease activity in the course of time of storage at 37° C. [31]: 88%; protease activity in the course of time of storage at 37° C. [32]: 85%; protease activity in the course of time of storage at 37° C. [33]: 80%; protease activity in the course of time of storage at 37° C. [34]: 74%; protease activity in the course of time of storage at 37° C. [35]: 101%
CCCCOC(=O)CC(CC(=O)OCCCC)(OC(C)=O)C(=O)OCCCC [A.4, Acetyltributylcitrate] | 100% | 96% | 92% | 87% | 83% | 79% | – | – | – | – | – | – | – | – | – | – | – | – | – | – | –
CCOC(=O)CC(CC(=O)OCC)(OC(C)=O)C(=O)OCC [A.5, Acetyltriethylcitrate] | 96% | 94% | 90% | 85% | 82% | 78% | 101% | 100% | 94% | 90% | 85% | 81% | 102% | 97% | 95% | 91% | 86% | 81% | 77% | 99% | protease activity in the course of time of storage at 37° C. [7]: 98%
CCOC(=O)CC(O)(CC(=O)O)C(=O)O (stereo not shown) [A.6, Monoethylcitrate] | – | – | – | – | – | – | 102% | 100% | 95% | 92% | 87% | 83% | 101% | 96% | 92% | 86% | 82% | 79% | 76% | 99% | –
O=C(CC(O)(CC(=O)OCc1ccccc1)C(=O)OCc1ccccc1)OCc1ccccc1 [A.8, Tribenzylcitrate] | – | – | – | – | – | – | 94% | 91% | 88% | 85% | 83% | 77% | 100% | – | – | – | – | – | – | – | protease activity in the course of time of storage at 37° C. [29]: 96%; protease activity in the course of time of storage at 37° C. [30]: 92%; protease activity in the course of time of storage at 37° C. [31]: 86%; protease activity in the course of time of storage at 37° C. [32]: 84%; protease activity in the course of time of storage at 37° C. [33]: 80%; protease activity in the course of time of storage at 37° C. [34]: 73%; protease activity in the course of time of storage at 37° C. [35]: 96%
